What was measured:
[1] = target: T1, Alpha-2C adrenergic receptor (Homo sapiens, UniProt P18825); test: (§1) Displacement of [3H]-UK14304 from recombinant human alpha2c adrenergic receptor expressed in CHOK1 cell membranes after 30 mins by scintillation counting analysis; set-up: species or system CHO-K1
T1 sequence (P18825 whole entry): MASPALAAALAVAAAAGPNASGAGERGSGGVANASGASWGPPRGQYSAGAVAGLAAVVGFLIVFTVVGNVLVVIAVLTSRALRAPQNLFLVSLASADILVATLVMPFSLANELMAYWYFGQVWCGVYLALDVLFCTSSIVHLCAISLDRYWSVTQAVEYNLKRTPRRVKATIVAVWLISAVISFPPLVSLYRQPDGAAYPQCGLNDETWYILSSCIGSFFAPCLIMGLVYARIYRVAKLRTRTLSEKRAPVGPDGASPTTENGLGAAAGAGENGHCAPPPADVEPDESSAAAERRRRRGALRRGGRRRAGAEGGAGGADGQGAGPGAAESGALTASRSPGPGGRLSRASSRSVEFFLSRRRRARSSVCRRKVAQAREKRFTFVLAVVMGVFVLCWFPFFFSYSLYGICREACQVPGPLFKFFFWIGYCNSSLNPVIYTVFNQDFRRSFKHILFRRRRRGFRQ

[2] = target: T2, Alpha-2C adrenergic receptor (Homo sapiens) (UniProt P18825); test: as §1; conditions: CHO-K1
T2 sequence (whole entry): T1 sequence (P18825 whole entry)

[3] = target: T2, Alpha-2C adrenergic receptor (Homo sapiens); test: Agonist activity at recombinant human alpha2c adrenergic receptor expressed in CHOK1 cells co-expressing Gqi5 assessed as induction of cytoplasmic calcium mobilization measured for 40 secs by fluorometric analysis relative to UK14304; format: functional, cell-based; conditions: CHO-K1
[4] = target: T1, Alpha-2C adrenergic receptor; test: Agonist activity at recombinant human alpha2c adrenergic receptor expressed in CHOK1 cells co-expressing Gqi5 assessed as induction of cytoplasmic calcium mobilization measured for 40 secs by fluorometric analysis; format: functional, cell-based, CHO-K1
[5] = target: Somatostatin receptor type 4 (Homo sapiens) (UniProt P31391); test: Agonist activity at recombinant human sst4 receptor expressed in CHOK1 cells co-expressing Galpha16 assessed as induction of cytoplasmic calcium mobilization at 250 uM measured for 40 secs by fluorometric analysis relative to L-803087; format: functional, cell-based; conditions: CHO-K1
Chain of Somatostatin receptor type 4 (Homo sapiens) (P31391 whole entry): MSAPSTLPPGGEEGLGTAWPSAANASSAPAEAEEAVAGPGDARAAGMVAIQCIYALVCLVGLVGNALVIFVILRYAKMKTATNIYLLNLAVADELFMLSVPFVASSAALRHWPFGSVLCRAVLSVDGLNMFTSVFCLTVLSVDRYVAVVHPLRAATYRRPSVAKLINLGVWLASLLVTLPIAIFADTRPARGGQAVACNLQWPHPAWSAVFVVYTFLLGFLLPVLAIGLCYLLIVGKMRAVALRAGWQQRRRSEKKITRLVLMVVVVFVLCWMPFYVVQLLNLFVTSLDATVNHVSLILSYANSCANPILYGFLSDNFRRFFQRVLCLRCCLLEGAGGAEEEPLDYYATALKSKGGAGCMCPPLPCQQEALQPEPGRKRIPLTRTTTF

Work on `NCCSc1nc2ccccc2o1` yielded a Ki [1] of 0.646 µM, an Emax [2] of 92% and an Emax [3] of 49%. The EC50 [4] was 3.16 µM.
`Cc1ccccc1NCc1ccncc1` gave a Ki [1] of 0.537 µM, an Emax [2] of 92% and an Emax [3] of over 66%. The EC50 [4] was over 501 µM.
With `Brc1cccc(Cn2ccnc2)c1` the Ki [1] was 1.17 µM, the Emax [2] was 97% and the Emax [3] was over 105%. The EC50 [4] was over 501 µM.
Work on `c1ccc(-c2nc(CNCc3cccnc3)c[nH]2)cc1` yielded a Ki [1] of 5.25 µM, an Emax [2] of 102% and an Emax [3] of 87%. It also gave an EC50 [4] of 479 µM.
`N#Cc1cccc(-c2ccccc2CCN)c1` gave a Ki [1] of 0.0117 µM, an Emax [2] of 100% and an Emax [3] of over 75%. For the same compound, the EC50 [4] was over 501 µM.
Compound `CN1CCN(c2cccc(N)c2)CC1` has a Ki [1] of 0.562 µM.
For `COc1ccccc1OCC1CNCCO1` (configuration not stated), the Ki [1] was 10.5 µM, the Emax [2] was 81% and the Emax [3] was over 77%. The EC50 [4] was over 501 µM.
With `NCCCN(C(=O)c1ccccc1)c1ccccc1` the Ki [1] was 8.32 µM, the Emax [2] was 104% and the Emax [3] was over 51%. For the same compound, the EC50 [4] was over 501 µM.
`OC(Cn1ccnc1)c1ccc(Cl)cc1Cl` (configuration not stated) was tested, and the Ki [1] was 15.1 µM, the Emax [2] was 78% and the Emax [3] was 123%. For the same compound, the EC50 [4] was 339 µM.
`CN1CCN(c2ccc(N)cc2)CC1` gave a Ki [1] of 1.51 µM, an Emax [2] of 100% and an Emax [3] of over 36%. It also gave an Activity [5] of under 10% and an EC50 [4] of over 501 µM.
With `Cc1ccccc1NCc1cnc[nH]1` the Ki [1] was 0.0724 µM, the Emax [2] was 100% and the Emax [3] was 60%. It also gave an EC50 [4] of 0.174 µM.
In the case of `CCNCC(=O)N1CCn2cccc2C1c1cccc(Cl)c1` (configuration not stated), the Ki [1] is reported as 7.24 µM, the Emax [2] is reported as 99% and the Emax [3] is reported as over 88%. It also gave an EC50 [4] of over 501 µM.
Compound `c1cncc(-c2ccccc2NCc2ccncc2)c1` has a Ki [1] of 1.07 µM, an Emax [2] of 98% and an Emax [3] of 56%. For the same compound, the EC50 [4] was 3.47 µM.
For `Cc1ccccc1Cn1ccnc1CNC(C)C`, the Ki [1] was 22.4 µM, the Emax [2] was 102% and the Emax [3] was 55%. It also gave an EC50 [4] of 148 µM.
Work on `CN1CCN(c2ccccc2N)CC1` yielded a Ki [1] of 0.24 µM.
Work on `O=C(CCC1CCCC1)N1CCSC12CCNCC2` yielded a Ki [1] of 15.5 µM, an Emax [2] of 81% and an Emax [3] of over 82%. The EC50 [4] was over 501 µM.
Work on `Oc1cc2c(cc1O)C(c1ccccc1)CNCC2` (configuration not stated) [SKF-38393] yielded a Ki [1] of 0.0832 µM, an Emax [2] of 92% and an Emax [3] of 70%. It also gave an EC50 [4] of 1.38 µM.
With `c1ccc2c(CC3=NCCN3)cccc2c1` [NAPHAZOLINE] the Ki [1] was 0.00229 µM, the Emax [2] was 102% and the Emax [3] was 55%. For the same compound, the EC50 [4] was 0.055 µM.
Compound `NCC(=O)Nc1ccccc1Oc1ccccc1` has a Ki [1] of 15.5 µM, an Emax [2] of 81% and an Emax [3] of 93%. For the same compound, the EC50 [4] was 631 µM.
Work on `COc1ccc(C2NCCCn3cccc32)cc1` (configuration not stated) yielded a Ki [1] of 13.8 µM.

— ChEMBL document CHEMBL3588743, “Cell-based and virtual fragment screening for adrenergic α2C receptor agonists” (Bioorg Med Chem, 2015)
